“Also recorded” adds a separate entry of the source. Read-outs that look alike come from different tables or passages of the source.
How the values were obtained:
[1] = system: A549 cells; test: MTT anti-proliferative assay, A549; assay type: cell-based; details: Homo sapiens, read-out: IC50 ± SD, A549
Method: (§1) The antiproliferative activity of the target indazole derivatives was evaluated against a panel of human cancer cell lines (human chronic myeloid leukemia cell lines K562; human lung cancer cell lines A549; human prostate cancer cell lines PC-3; human hepatoma cell lines HepG-2) in vitro, and human embryonic kidney cell lines HEK-293 were used to evaluate the cytotoxicity of a normal cell with high activity derivatives by MTT assay. Moreover, 5-fluorouracil (5-Fu), a broad-spectrum drug antitumor drug with therapeutic effects on various cancers, was used as a positive control.
(§2) Lung (A549), chronic myeloid leukemia (K562), prostate (PC3), and live (Hep-G2) cells were purchased from the Cell Bank of the Chinese Academy of Sciences (Kunming, China). A549, K562, and PC-3 cells were cultured in RPMI-1640 medium and the liver cells Hep-G2 were cultured in MEM medium. All mediums were supplemented with 10% FBS, 100 μg/mL penicillin and 100 μg/mL streptomycin. All cells were cultivated in a 5% CO2 incubator at 37 °C.
(§3) To investigate the anticancer activity of indazole derivatives, A549, K562, PC3, and Hep-G2 cells were treated with targets compounds respectively for 48 h in a range of concentrations (from 0.625 to 10 μM) and subjected to a proliferation assay using the MTT assay. Exponentially growing cells were seeded at a density of 5000 cells per well in 96-well plates containing 100 μL of fresh growth medium. After allowing the cells to attach for 24 h, target compounds were added. After incubation for 48 h, viable cells were stained with MTT (0.5 mg/mL) for 4 h, and the produced formazan crystals were dissolved with 150 µL of dimethyl sulfoxide. Absorbance was measured at 490 nm using an automated microplate reader (Tecan, Infinite M200 Pro, Männedorf, Switzerland). The relative cell viability was calculated according to the following equation: Cell viability%=experimental OD value/control OD value×100%Cell inhibition%=control OD value−experimental OD value/control OD value×100%
(§4) Cell inhibition%=control OD value−experimental OD value/control OD value×100%

[2] = system: PC-3 cells; test: MTT anti-proliferative assay, PC-3; assay type: cell-based; details: Homo sapiens, PC-3, 48 h
Method: as §1, §2
as §3, with “Exponentially” for “To investigate the anticancer activity of indazole derivatives, A549, K562, PC3, and Hep-G2 cells were treated with targets compounds respectively for 48 h in a range of concentrations (from 0.625 to 10 μM) and subjected to a proliferation assay using the MTT assay. Exponentially”
as §4

[3] = system: K562 cells; test: Cell cycle analysis (PI staining, flow cytometry); assay type: cell-based, human; details: 24 h
Method: To further explore the antitumor properties of 6o, the effect of 6o on cell cycle distribution was evaluated. PI staining was used to perform cell cycle analysis.
To analyze the cell cycle, a PI apoptosis detection kit (Solarbio, Wuhan, China) was utilized. After K562 cells were seeded in 6-well plates for 24 h, compound 6o (10, 12 and 14 μM) or positive control was added to the plates for another 24 h. Then, cells were washed three times with PBS, and fixed with 70% ethanol at 4°C for overnight. After fixed, cells were again washed with PBS and incubated at 37 °C with 100 μL RNase A for 30 min. After this, cells were incubated with 400 μL PI for 30 min at 4 °C. After staining, cells were subjected to Flow Cytometry using Cell Quest software (BD, SN: E34297502014) and the PI fluorescence was recorded in the FL2 channel. Data were analyzed using FlowJo V10.

[4] = system: Hep-G2 cells; test: MTT anti-proliferative assay, Hep-G2; assay type: cell-based; details: Homo sapiens
Method: as §1, §2, §3, §4

[5] = system: K562 cells; test: MTT anti-proliferative assay, K562; assay type: cell-based; details: Homo sapiens
Method: as §1, §2, §3, §4

[6] = MTT cytotoxicity to normal cells, HEK-293; assay type: cell-based, human; details: human, HEK-293 cells (normal human embryonic kidney cells); normal cell HEK-293; MTT; read-out: IC50 ± SD, HEK-293
Method: as §1, §3, §4

[7] = system: HEK-293 cells; test: MTT cytotoxicity to normal cells, HEK-293; assay type: cell-based, human; details: for Selectivity index (SI) for Hep-G2 cells: IC50 in HEK-293 divided by IC50 in Hep-G2; for Selectivity index (SI) for K562 cells: IC50 in HEK-293 divided by IC50 in K562
Method: as §1, §3, §4

[8] = system: Bax and Bcl-2 expression in K562 cells; test: Western blotting of apoptosis-related proteins Bax and Bcl-2; assay type: cell-based, human; details: K562, 48 h
Method: (§5) To quantify the effects of 6o on K562 cell apoptosis, K562 cells were treated with different concentrations of the compound 6o and followed by Annexin V-FITC/PI detection assay.
K562 cells were treated with compound 6o for 48 h, then, lysed in 1×RIPA lysis buffer (Solarbio) with proteinase (Solarbio) and phosphatase inhibitors (Solarbio) for 15 min on ice (proteinase: phosphatase inhibitors: 1 × RIPA lysis buffer = 1:1:100), scraped off from the plate and prepared cell lysates. These lysates were centrifuged at 1.2 × 10^4 rpm at 4 °C for 15 min to collect the supernatants and the protein concentration of each sample was quantified by the BCA protein assay kit (Beyotime, Shanghai, China). Protein was separated by SDS-PAGE and then transferred onto the PVDF membrane. After blocking with 5% skim milk for 2 h, befitting primary antibodies include Bax (Proteintech; Type: Rabbit; Cat No.: 50599-2-lg); Bcl-2 (Proteintech; Type: Mouse; Cat No.: 60178-1-lg); GAPDH (Proteintech; Type: Mouse; Cat No.: 60004-1-lg); β-actin (Proteintech; Type: Rabbit; Cat No.: 81115-1-RR); P53 (Cell signaling; Type: Rabbit; Cat No.: #2527) and MDM2 (Cell signaling; Type: Rabbit; Cat No.: #86934) were sealed in Antibody Dilution Buffer, and cocultivated with the PDF membrane at 4 °C for overnight. […]

[9] = system: p53 and MDM2 expression in K562 cells; test: Western blotting of p53 and MDM2; assay type: cell-based, human; details: K562, 48 h
Method: Loss of p53 activity by deletion, mutation, or MDM2 over-expression, is the most common event in the development and progression of cancer. To confirm the ability of 6o to inhibit the p53 and MDM2 interaction in K562, the expression levels of these two proteins were evaluated by Western blotting assay after 48 h of 6o treatment. […] In summary, 6o could change the expression of p53 and MDM2, disrupting the balance of intracellular p53 protein levels, and eventually inducing apoptosis of K562.
K562 cells were treated with compound 6o for 48 h, then, lysed in 1×RIPA lysis buffer (Solarbio) with proteinase (Solarbio) and phosphatase inhibitors (Solarbio) for 15 min on ice (proteinase: phosphatase inhibitors: 1 × RIPA lysis buffer = 1:1:100), scraped off from the plate and prepared cell lysates. These lysates were centrifuged at 1.2 × 10^4 rpm at 4 °C for 15 min to collect the supernatants and the protein concentration of each sample was quantified by the BCA protein assay kit (Beyotime, Shanghai, China). Protein was separated by SDS-PAGE and then transferred onto the PVDF membrane. […]

[10] = system: K562 cells; test: Annexin V-FITC/PI cell apoptosis detection assay (flow cytometry); assay type: cell-based, human; details: 48 h
Method: as §5
Activation of tumor cell apoptosis plays an important role in treatment cancer. To investigate whether apoptosis could underlie the anticancer activity of 6o, K562 cells were treated with 6o (0, 10, 12 or 14 μM) for 48 h and the percentage of apoptosis was determined by flow cytometry, Annexin V-FITC/PI Apoptosis Detection Kit (BD, Franklin Lakes, NJ, USA) was used. Cells (1 × 10^6/mL per well) were plated in 6-well culture plates and grown for 24 h. After treatment with compound 6o for 48 h, the collected cells were washed two times with ice-cold PBS, counted, and 100 μL of cell suspension with a density of 1 × 10^6 cells/mL was prepared, then incubated with 5 μL Annexin V-FITC and 5 μL Propidium iodide (PI) in the dark for 15 min. After 15 min of incubation and added 400 μL of 1 × binding buffer, and use Cell Quest software (BD, SN: E34297502014) to perform detection on Flow Cytometry (BD, Franklin Lakes, NJ, USA). Data were analyzed using FlowJo V10.

[11] = Table 1, read-out: IC50 ± SD, PC-3
[12] = Table 2, read-out: IC50 ± SD, PC-3
[13] = HepG2, 48 h, Table 1, 48 h, read-out: IC50 ± SD, Hep-G2
[14] = HepG2, 48 h, Table 2, 48 h, read-out: IC50 ± SD, Hep-G2
[15] = HepG2, Table 3, read-out: IC50 ± SD, Hep-G2
[16] = Table 1, 48 h, read-out: IC50 ± SD, K562
[17] = Table 3, read-out: IC50 ± SD, K562
[18] = Table 2, 48 h, read-out: IC50 ± SD, K562

IC50 ([1]; Table 1, 48 h) [µM]	IC50 [2, 11] [µM]	IC50 [2, 12] [µM]	IC50 [4, 13] [µM]	IC50 [4, 14] [µM]	IC50 [4, 15] [µM]	IC50 [5, 16] [µM]	IC50 [5, 17] [µM]	IC50 ([1]; Table 2, 48 h) [µM]	IC50 [5, 18] [µM]	melting point [°C]	Compound	IC50 at 48 h [6] [µM]	Selectivity index (SI) for Hep-G2 cells [7]	Selectivity index (SI) for K562 cells [7]	other results
8.37 ± 0.79	9.17 ± 3.93	3.47 ± 0.21	9.78 ± 1.58	2.25 ± 0.46	9.78 ± 1.58	8.53 ± 2.27	8.53 ± 2.27				O=c1[nH]cc(F)c(=O)[nH]1 [5-Fu, 5-fluorouracil, reference compound]	1.16 ± 0.11	0.12	0.14	increase of the proportion of the G0/G1 phase after drug treatment ([3]; K562, positive control): 10%
		27.7 ± 16.9		20 ± 3.04				17.6 ± 4.11	> 50	195 to 197	O=C(CN1CCN(c2ccncc2)CC1)Nc1n[nH]c2ccc(-c3ccc(Cl)c(Cl)c3)cc12 [6u]				
7.78 ± 0.18	12.6 ± 2.17		3.32 ± 0.43		3.32 ± 0.43	8.86 ± 0.66				204 to 205	O=C(CSc1ccc(Br)cc1)Nc1n[nH]c2ccc(-c3cc(F)cc(F)c3)cc12 [compound 5k]	12.2 ± 2.85	3.67		
		8.34 ± 1.55		7.37 ± 0.24			5.15 ± 0.55	6.73 ± 1.03	5.15 ± 0.55	183 to 185	O=C(CN1CCN(c2ccc(C(F)(F)F)cc2)CC1)Nc1n[nH]c2ccc(-c3ccc(Cl)c(F)c3)cc12 [compound 6o]	33.2 ± 3.83		6.45	expression of Bax (pro-apoptotic protein) [8]: increase; expression of Bcl-2 (apoptosis-inhibiting protein) [8]: decreased; also recorded: reduce; G0/G1 population ([3]; K562, 10 μM): 31.8%; G0/G1 population ([3]; K562, 12 μM): 36.4%; G0/G1 population ([3]; K562, 14 μM): 41.1%; proportion of S phase cells ([3]; K562, 10, 12 and 14 μM, vs negative control): decreased significantly; expression level of p53 protein [9]: up-regulate; expression of MDM2 protein [9]: reduce; total apoptosis rate (early and late apoptosis) ([10]; K562, 10 μM): 9.64%; total apoptosis rate (early and late apoptosis) ([10]; K562, 12 μM): 16.59%; total apoptosis rate (early and late apoptosis) ([10]; K562, 14 μM): 37.72%

Source: paper PMC10218234, “Design, Synthesis and Antitumor Activity of 1H-indazole-3-amine Derivatives” (International Journal of Molecular Sciences, 2023)
